Data as given in ChEMBL document CHEMBL5241053, “Discovery of novel steroidal-chalcone hybrids with potent and selective activity against triple-negative breast cancer” (Bioorg Med Chem, 2020).
pIC50: −log10 of the molar value.

Legend:
[1] = Selectivity index, ratio of IC50 for antiproliferative activity against human HT-29 cells to IC50 for antiproliferative activity against human MDA-MB-231 cells; assay type: functional
[2] = tested on: A549; assay: Antiproliferative activity against human A549 cells assessed as cell growth inhibition incubated for 4 hrs by MTT assay; assay type: functional, cell-based; conditions: A549, 4 h
[3] = tested on: MDA-MB-231; assay: Antiproliferative activity against human MDA-MB-231 cells assessed as cell growth inhibition incubated for 4 hrs by MTT assay; assay type: functional, cell-based; conditions: MDA-MB-231, 4 h
[4] = Selectivity index, ratio of IC50 for antiproliferative activity against human A549 cells to IC50 for antiproliferative activity against human MDA-MB-231 cells; assay type: functional
[5] = tested on: HT-29; assay: Antiproliferative activity against human HT-29 cells assessed as cell growth inhibition incubated for 4 hrs by MTT assay; assay type: functional, cell-based; conditions: HT-29, 4 h

| Compound | Ratio IC50 [1] | pIC50 [2] | pIC50 [3] | Ratio IC50 [4] | pIC50 [5] |
| --- | --- | --- | --- | --- | --- |
| C[C@]12CC[C@H]3[C@@H](CCC4=CC(=O)C=C[C@@]43C)[C@@H]1CC[C@@H]2C(=O)NCCNC(=O)/C=C/c1cccc([N+](=O)[O-])c1 | >2.9 | 4.47 | 4.86 | 2.5 | < 4.40 |
| COc1ccc(/C=C/C(=O)NCCNC(=O)[C@H]2CC[C@H]3[C@@H]4CCC5=CC(=O)C=C[C@]5(C)[C@H]4CC[C@]23C)cc1 | >3.5 | 4.53 | 4.94 | 2.6 | < 4.40 |
| C[C@]12CC[C@H]3[C@@H](CCC4=CC(=O)C=C[C@@]43C)[C@@H]1CC[C@@H]2C(=O)NCCNC(=O)/C=C/c1ccccc1 | 2.2 | 4.57 | 5.24 | 4.6 | 4.90 |
| COc1cc(/C=C/C(=O)NCCNC(=O)[C@H]2CC[C@H]3[C@@H]4CCC5=CC(=O)C=C[C@]5(C)[C@H]4CC[C@]23C)cc(OC)c1OC | – | 4.44 | < 4.40 | – | < 4.40 |
| C[C@]12CC[C@H]3[C@@H](CCC4=CC(=O)C=C[C@@]43C)[C@@H]1CC[C@@H]2C(=O)NCCNC(=O)/C=C/c1ccc(Cl)cc1 | – | 4.41 | < 4.40 | – | < 4.40 |
| COc1cc(/C=C/C(=O)NCCNC(=O)[C@H]2CC[C@H]3[C@@H]4CCC5=CC(=O)CC[C@]5(C)[C@H]4CC[C@]23C)cc(OC)c1OC | – | < 4.40 | < 4.40 | – | < 4.40 |
| C[C@]12CC[C@H]3[C@@H](CCC4=CC(=O)C=C[C@@]43C)[C@@H]1CC[C@@H]2C(=O)NCCNC(=O)/C=C/c1ccc(C(F)(F)F)cc1 | >3.2 | 4.42 | 4.90 | 3.2 | < 4.40 |
| C[C@]12CC[C@H]3[C@@H](CCC4=CC(=O)CC[C@@]43C)[C@@H]1CC[C@@H]2C(=O)NCCNC(=O)/C=C/c1ccc(Cl)cc1 | 1.8 | 4.45 | 5.09 | 4.3 | 4.82 |
| COc1ccc(/C=C/C(=O)NCCNC(=O)[C@H]2CC[C@H]3[C@@H]4CCC5=CC(=O)CC[C@]5(C)[C@H]4CC[C@]23C)cc1 | 1.6 | < 4.40 | 4.65 | >1.8 | 4.46 |
| C[C@]12CC[C@H]3[C@@H](CCC4=CC(=O)CC[C@@]43C)[C@@H]1CC[C@@H]2C(=O)NCCNC(=O)/C=C/c1cccc([N+](=O)[O-])c1 | 2.3 | 4.75 | 4.95 | 1.6 | 4.60 |
| C[C@]12CC[C@H]3[C@@H](CCC4=CC(=O)CC[C@@]43C)[C@@H]1CC[C@@H]2C(=O)NCCNC(=O)/C=C/c1ccc([N+](=O)[O-])cc1 | 2.3 | < 4.40 | 4.92 | >3.3 | 4.56 |
| CC(C)(C)OC(=O)NCCNC(=O)[C@H]1CC[C@H]2[C@@H]3CCC4=CC(=O)CC[C@]4(C)[C@H]3CC[C@]12C | – | < 4.40 | 4.61 | – | < 4.40 |
| O=C(/C=C/c1ccccc1)c1ccccc1 [CHALCONE] | – | 4.16 | 4.37 | – | 4.34 |
| COc1ccc(/C=C/C(=O)NCCNC(=O)[C@H]2CC[C@H]3[C@@H]4CCC5=CC(=O)C=C[C@]5(C)[C@H]4CC[C@]23C)cc1OC | >7 | < 4.40 | 5.24 | >7 | < 4.40 |
| CC(C)(C)OC(=O)NCCNC(=O)[C@H]1CC[C@H]2[C@@H]3CCC4=CC(=O)C=C[C@]4(C)[C@H]3CC[C@]12C | – | < 4.40 | < 4.40 | – | < 4.40 |
